Measurements taken from ChEMBL document CHEMBL1144174, “Design and synthesis of 6-fluoro-2-naphthyl derivatives as novel CCR3 antagonists with reduced CYP2D6 inhibition” (Bioorg Med Chem, 2008).
Active and inactive are the calls of the source. The calls are words filed in the database; no cut-off is given here.

How the values were obtained:
Cytochrome P450 2D6 = Cytochrome P450 2D6 (Homo sapiens, UniProt P10635); assay: Inhibition of human CYP2D6 by fluorescence technique in presence of NADP; assay type: ADME
[1] = target: T1, C-C chemokine receptor type 3 (Homo sapiens, UniProt P51677); assay: Antagonist activity at CCR3 receptor expressed in mouse B300-19 cells assessed as inhibition of eotaxin-induced calcium influx by spectrophotometry; assay type: functional, cell-based
T1 sequence (P51677 whole entry): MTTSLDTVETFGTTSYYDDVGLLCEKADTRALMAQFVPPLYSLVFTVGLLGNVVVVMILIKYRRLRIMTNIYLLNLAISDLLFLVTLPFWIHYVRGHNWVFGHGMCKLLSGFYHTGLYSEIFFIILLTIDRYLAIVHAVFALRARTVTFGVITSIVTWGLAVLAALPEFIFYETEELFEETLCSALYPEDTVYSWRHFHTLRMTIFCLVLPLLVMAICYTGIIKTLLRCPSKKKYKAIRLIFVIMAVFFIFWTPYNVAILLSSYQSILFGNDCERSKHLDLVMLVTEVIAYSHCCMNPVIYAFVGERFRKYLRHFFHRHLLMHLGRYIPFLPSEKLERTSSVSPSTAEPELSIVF

[2] = target: C-C chemokine receptor type 2 (Homo sapiens) (UniProt P41597); assay: Inhibition of CCR2 receptor at 10 uM
[3] = target: T2, C-C chemokine receptor type 1 (Homo sapiens) (UniProt P32246); assay: Inhibition of CCR1 receptor at 10 uM
T2 sequence (whole entry): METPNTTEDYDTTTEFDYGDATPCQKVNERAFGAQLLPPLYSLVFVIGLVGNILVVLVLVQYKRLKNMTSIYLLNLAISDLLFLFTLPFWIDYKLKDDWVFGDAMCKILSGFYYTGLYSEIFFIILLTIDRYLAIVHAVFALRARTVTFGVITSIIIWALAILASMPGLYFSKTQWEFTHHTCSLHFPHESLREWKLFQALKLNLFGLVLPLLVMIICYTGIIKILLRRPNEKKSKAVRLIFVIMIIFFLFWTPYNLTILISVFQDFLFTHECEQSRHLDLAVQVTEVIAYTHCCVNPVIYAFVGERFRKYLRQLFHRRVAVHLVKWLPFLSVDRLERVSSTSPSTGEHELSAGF

[4] = target: C-C chemokine receptor type 5 (Homo sapiens) (UniProt P51681); assay: Inhibition of CCR5 receptor at 10 uM
Cytochrome P450 2C9 = Cytochrome P450 2C9 (Homo sapiens, UniProt P11712); assay: Inhibition of human CYP2C9; assay type: ADME
Cytochrome P450 2C19 = Cytochrome P450 2C19 (Homo sapiens, UniProt P33261); assay: Inhibition of human CYP2C19; assay type: ADME
Cytochrome P450 1A2 = target: T3, Cytochrome P450 1A2 (Homo sapiens, UniProt P05177); assay: Inhibition of human CYP1A2; assay type: ADME
T3 sequence (P05177 whole entry): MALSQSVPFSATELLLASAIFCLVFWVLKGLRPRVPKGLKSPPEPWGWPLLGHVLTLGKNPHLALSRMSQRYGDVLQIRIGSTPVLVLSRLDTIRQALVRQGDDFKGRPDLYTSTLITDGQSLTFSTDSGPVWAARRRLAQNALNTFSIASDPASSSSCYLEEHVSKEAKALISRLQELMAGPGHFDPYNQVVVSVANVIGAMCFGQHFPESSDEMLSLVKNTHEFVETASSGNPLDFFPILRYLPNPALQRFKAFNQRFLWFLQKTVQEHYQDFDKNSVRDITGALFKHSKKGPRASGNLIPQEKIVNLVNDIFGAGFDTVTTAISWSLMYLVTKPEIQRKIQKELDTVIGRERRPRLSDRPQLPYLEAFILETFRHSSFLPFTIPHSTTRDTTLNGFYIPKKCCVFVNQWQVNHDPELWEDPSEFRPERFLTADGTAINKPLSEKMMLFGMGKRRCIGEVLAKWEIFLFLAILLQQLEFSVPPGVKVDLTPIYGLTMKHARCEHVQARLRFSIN

Cytochrome P450 3A4 = Cytochrome P450 3A4 (Homo sapiens, UniProt P08684); assay: Inhibition of human CYP3A4; assay type: ADME
Cytochrome P450 3A4, sequence (P08684 whole entry): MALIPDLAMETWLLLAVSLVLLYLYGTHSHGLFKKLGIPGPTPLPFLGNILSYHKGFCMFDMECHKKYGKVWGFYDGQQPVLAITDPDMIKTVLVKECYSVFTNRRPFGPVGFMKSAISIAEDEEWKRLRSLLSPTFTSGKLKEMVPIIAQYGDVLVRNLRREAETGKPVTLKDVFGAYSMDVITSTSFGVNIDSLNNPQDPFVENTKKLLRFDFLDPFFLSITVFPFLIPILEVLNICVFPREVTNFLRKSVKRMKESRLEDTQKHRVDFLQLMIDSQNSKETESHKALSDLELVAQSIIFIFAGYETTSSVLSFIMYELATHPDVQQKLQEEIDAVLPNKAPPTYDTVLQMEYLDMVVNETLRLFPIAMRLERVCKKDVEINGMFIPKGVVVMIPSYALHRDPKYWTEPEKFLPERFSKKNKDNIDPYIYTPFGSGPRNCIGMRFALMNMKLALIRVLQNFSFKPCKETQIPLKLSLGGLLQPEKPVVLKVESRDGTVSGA

Cytochrome P450 2D6, sequence (P10635 whole entry): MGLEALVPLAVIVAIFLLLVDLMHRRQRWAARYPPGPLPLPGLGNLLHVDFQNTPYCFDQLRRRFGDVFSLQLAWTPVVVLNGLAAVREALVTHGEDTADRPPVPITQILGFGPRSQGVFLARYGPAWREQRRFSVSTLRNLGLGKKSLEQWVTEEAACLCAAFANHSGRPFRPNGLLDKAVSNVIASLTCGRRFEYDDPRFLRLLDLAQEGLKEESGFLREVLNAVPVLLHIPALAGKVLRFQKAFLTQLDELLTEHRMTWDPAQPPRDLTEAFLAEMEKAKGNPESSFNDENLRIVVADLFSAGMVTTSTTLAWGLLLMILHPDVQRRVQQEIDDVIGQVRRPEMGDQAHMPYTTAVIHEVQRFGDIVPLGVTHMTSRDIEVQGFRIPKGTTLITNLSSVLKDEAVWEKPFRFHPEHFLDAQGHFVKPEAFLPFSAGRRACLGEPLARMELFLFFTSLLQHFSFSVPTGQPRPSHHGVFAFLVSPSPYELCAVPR
C-C chemokine receptor type 5 (Homo sapiens), sequence (P51681 whole entry, looked up): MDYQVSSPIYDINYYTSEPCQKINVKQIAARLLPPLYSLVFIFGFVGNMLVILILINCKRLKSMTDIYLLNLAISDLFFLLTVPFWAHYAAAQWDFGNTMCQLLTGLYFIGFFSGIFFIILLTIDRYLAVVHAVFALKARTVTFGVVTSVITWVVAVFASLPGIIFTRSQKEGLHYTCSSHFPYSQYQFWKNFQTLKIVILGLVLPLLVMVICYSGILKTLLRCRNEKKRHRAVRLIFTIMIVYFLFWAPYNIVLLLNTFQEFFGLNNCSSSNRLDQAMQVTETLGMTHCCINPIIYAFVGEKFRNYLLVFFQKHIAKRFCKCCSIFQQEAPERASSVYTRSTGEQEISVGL
Cytochrome P450 2C9, sequence (P11712 whole entry): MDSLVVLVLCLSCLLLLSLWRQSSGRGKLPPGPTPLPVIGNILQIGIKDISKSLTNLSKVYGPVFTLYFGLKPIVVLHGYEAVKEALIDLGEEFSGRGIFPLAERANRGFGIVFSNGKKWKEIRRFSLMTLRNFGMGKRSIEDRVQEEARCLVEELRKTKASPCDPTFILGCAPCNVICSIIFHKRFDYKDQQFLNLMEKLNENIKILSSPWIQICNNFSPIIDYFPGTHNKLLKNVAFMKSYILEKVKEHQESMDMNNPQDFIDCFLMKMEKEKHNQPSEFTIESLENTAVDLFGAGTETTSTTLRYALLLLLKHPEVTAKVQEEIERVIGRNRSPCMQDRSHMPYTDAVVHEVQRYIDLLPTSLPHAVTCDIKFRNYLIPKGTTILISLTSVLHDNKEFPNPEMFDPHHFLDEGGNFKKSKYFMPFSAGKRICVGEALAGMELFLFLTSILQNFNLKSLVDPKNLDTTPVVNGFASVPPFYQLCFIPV
C-C chemokine receptor type 2 (Homo sapiens), sequence (P41597 whole entry, looked up): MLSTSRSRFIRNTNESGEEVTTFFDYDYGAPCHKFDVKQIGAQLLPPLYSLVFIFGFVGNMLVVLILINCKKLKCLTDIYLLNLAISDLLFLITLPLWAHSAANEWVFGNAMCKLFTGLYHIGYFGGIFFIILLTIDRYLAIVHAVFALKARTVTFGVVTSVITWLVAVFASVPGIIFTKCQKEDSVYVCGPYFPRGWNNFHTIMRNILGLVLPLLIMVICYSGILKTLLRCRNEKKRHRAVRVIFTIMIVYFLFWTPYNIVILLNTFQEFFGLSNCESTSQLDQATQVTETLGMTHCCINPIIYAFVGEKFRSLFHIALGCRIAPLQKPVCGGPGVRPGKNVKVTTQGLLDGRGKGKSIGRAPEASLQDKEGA
Cytochrome P450 2C19, sequence (P33261 whole entry): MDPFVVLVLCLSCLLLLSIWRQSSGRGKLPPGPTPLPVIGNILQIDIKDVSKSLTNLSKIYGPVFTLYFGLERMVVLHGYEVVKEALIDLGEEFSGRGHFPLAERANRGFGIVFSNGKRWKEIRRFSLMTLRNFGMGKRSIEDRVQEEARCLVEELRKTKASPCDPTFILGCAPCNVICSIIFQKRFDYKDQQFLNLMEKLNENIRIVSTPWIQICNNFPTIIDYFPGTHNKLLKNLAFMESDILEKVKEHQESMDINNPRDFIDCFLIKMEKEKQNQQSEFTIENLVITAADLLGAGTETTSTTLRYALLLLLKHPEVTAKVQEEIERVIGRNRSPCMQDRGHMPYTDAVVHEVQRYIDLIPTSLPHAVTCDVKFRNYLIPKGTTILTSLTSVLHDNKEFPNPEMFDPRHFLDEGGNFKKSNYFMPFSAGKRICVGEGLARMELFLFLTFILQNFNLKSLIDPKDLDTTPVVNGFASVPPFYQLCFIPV

Row | Structure (SMILES) | IC50 (Cytochrome P450 2D6) [nM] | IC50 [1] [nM] | also measured
1 | O=C(N[C@@H]1C[C@H]2CC[C@@H](C1)N2Cc1ccc2cc(F)ccc2c1)c1ccccc1-c1ccccn1 | 4000 | 57 | –
2 | O=C(N[C@@H]1C[C@H]2CC[C@@H](C1)N2Cc1ccc2cc(F)ccc2c1)c1ccccc1-c1nccs1 | 2400 | 89 | –
3 | O=C(N[C@@H]1C[C@H]2CC[C@@H](C1)N2Cc1ccc2cc(F)ccc2c1)c1cc[n+]([O-])cc1C(=O)N1CCCCC1 | – | – | Activity [2]: inactive; Activity [3]: inactive; Activity [4]: inactive
4 | O=C(N[C@@H]1C[C@H]2CC[C@@H](C1)N2Cc1ccc2cc(F)ccc2c1)c1ccccc1OC1CCCCC1 | 580 | 118 | –
5 | CN(C(=O)c1ccccc1C(=O)N[C@@H]1C[C@H]2CC[C@@H](C1)N2Cc1ccc2cc(F)ccc2c1)C1CCCCC1 | 2900 | 44 | –
6 | O=C(N[C@@H]1C[C@H]2CC[C@@H](C1)N2Cc1ccc2cc(F)ccc2c1)c1cccnc1C(=O)N1CCCCC1 | 18300 | 98 | –
7 | O=C(N[C@@H]1C[C@H]2CC[C@@H](C1)N2Cc1ccc2cc(F)ccc2c1)c1ccccc1-c1ccncc1 | – | 613 | –
8 | O=C(N[C@@H]1C[C@H]2CC[C@@H](C1)N2Cc1ccc2cc(F)ccc2c1)c1ccccc1-c1cncnc1 | 2900 | 93 | –
9 | O=C(N[C@@H]1C[C@H]2CC[C@@H](C1)N2Cc1ccc2cc(F)ccc2c1)c1ncccc1C(=O)N1CCCCC1 | 23500 | 131 | –
10 | O=C(N[C@@H]1C[C@H]2CC[C@@H](C1)N2Cc1ccc2cc(F)ccc2c1)c1ccncc1C(=O)N1CCCCC1 | 6800 | 13 | –
11 | O=C(NC1C[C@H]2CC[C@H](C1)N2Cc1ccc2cc(F)ccc2c1)c1ccccc1-c1ccccc1 (stereo partly specified) | – | – | IC50 (Cytochrome P450 2C9): > 20000 nM; IC50 (Cytochrome P450 2C19): > 20000 nM; IC50 (Cytochrome P450 1A2): > 20000 nM; IC50 (Cytochrome P450 3A4): > 20000 nM
12 | O=C(N[C@@H]1C[C@H]2CC[C@@H](C1)N2Cc1ccc2cc(F)ccc2c1)c1ccccc1-n1cccc1 | – | 221 | –
13 | O=C(N[C@@H]1C[C@H]2CC[C@@H](C1)N2Cc1ccc2cc(F)ccc2c1)c1ccccc1-n1ccnc1 | – | 217 | –
14 | O=C(N[C@@H]1C[C@H]2CC[C@@H](C1)N2Cc1ccc2cc(F)ccc2c1)c1ccccc1-c1cccnc1 | 1600 | 29 | –

Second part, led by results:

Row | IC50 (Cytochrome P450 2D6) [nM] | IC50 [1] [nM] | Structure (SMILES) | also measured
15 | 7300 | 225 | O=C(N[C@@H]1C[C@H]2CC[C@@H](C1)N2Cc1ccc2cc(F)ccc2c1)c1ccccc1C(=O)N1CCCC1 | –
16 | 3000 | 12 | O=C(N[C@@H]1C[C@H]2CC[C@@H](C1)N2Cc1ccc2cc(F)ccc2c1)c1ccccc1C(=O)N1CCCCCC1 | –
17 | 6500 | 23 | O=C(N[C@@H]1C[C@H]2CC[C@@H](C1)N2Cc1ccc2cc(F)ccc2c1)c1ccccc1C(=O)N1CCCCC1 | –
18 | 26700 | 85 | O=C(N[C@@H]1C[C@H]2CC[C@@H](C1)N2Cc1ccc2cc(F)ccc2c1)c1cnccc1C(=O)N1CCCCC1 | –
19 | – | 279 | O=C(N[C@@H]1C[C@H]2CC[C@@H](C1)N2Cc1ccc2cc(F)ccc2c1)c1ccccc1N1CCCCC1 | –
20 | 7100 | 482 | CN1CCN(C(=O)c2ccccc2C(=O)N[C@@H]2C[C@H]3CC[C@@H](C2)N3Cc2ccc3cc(F)ccc3c2)CC1 | –
21 | 8200 | 679 | O=C(N[C@@H]1C[C@H]2CC[C@@H](C1)N2Cc1ccc2cc(F)ccc2c1)c1ccccc1C(=O)N1CCOCC1 | –
